# Columns and labels:
# MDA-MB-231 [1] = experiment: Drug uptake in human MDA-MB-231 cells by flow cytometry; type: ADME, cell-based
# MCF7 [2] = experiment: Drug uptake in human MCF7 cells by flow cytometry; type: ADME, cell-based
# MDA-MB-231 [3] = experiment: Cytotoxicity against human MDA-MB-231 cells MTT assay; type: functional, cell-based
# HepG2 = experiment: Cytotoxicity against human HepG2 cells MTT assay; type: functional, cell-based
# MCF7 [4] = experiment: Cytotoxicity against human MCF7 cells by MTT assay; type: functional, cell-based
SMILES,Drug uptake (MDA-MB-231 [1]),Drug uptake (MCF7 [2]),IC50 (MDA-MB-231 [3]),IC50 (HepG2),IC50 (MCF7 [4])
COc1cccc2c1C(=O)c1c(O)c3c(c(O)c1C2=O)C[C@@](O)(C(=O)CO)C[C@@H]3O[C@H]1C[C@H](N)[C@H](O)[C@H](C)O1 [DOXORUBICIN],Dose-dependent effect,Dose-dependent effect,10.2 µM,14.3 µM,–
CC/C=C\C/C=C\C/C=C\CCCCCCCC(=O)N[C@H]1C[C@H](O[C@H]2C[C@](O)(C(=O)CO)Cc3c(O)c4c(c(O)c32)C(=O)c2c(OC)cccc2C4=O)O[C@@H](C)[C@H]1O,Dose-dependent effect,Dose-dependent effect,3.1 µM,6.8 µM,4.7 µM

# Source: ChEMBL document CHEMBL1138599, “Conjugation with alpha-linolenic acid improves cancer cell uptake and cytotoxicity of doxorubicin” (Bioorg Med Chem Lett, 2009)
